One data set concerns sugarcane plantlet. Kind of data set: Storage of plantlets in Starcla tube seed structures after chemical treatment during regeneration; field survival. The data set is classed as in vivo. To be noted: for Survival: survival after 5 weeks of growth in field. The source says:
The effect of time, temperature, and light on storage of plantlets was studied, in combination with the effect of chemical treatment. Seed structures consisted of 4″ Starcla™ tubes. Tubes were extruded from a resin, such as a blend of polybutylene succinate, polylactic acid, and starch, using a 1½″ Davis Standard-extruder. Tubing was made with ⅝″ I.D. and cut into 4″ length tubes. The seeds were assembled by heating the bottom of the tube and pressing into a crescent shape where there is 2-3 millimeter gap between both sides. Two grams of potting media were added to each tube. One sugarcane plantlet was placed inside the tube structure ensuring the roots were placed in the soil and the shoot remained in the airspace. Two milliliters of water were added to the structure and then the top was prepared by heating and forming a crescent shape with a 2-3 millimeter gap between both sides.
Two types of chemical treatments were used during regeneration. The first treatment was paclobutrazol (paclo), which was introduced into the media for weeks 3 and 4 of plantlet formation. The solution contained 2% sucrose, ½ strength MS, 100 ppm cefotaxime, and 0.75 mg/L paclobutrazol. The second treatment was abscisic acid (ABA) which was introduced the day before the plantlets were removed from regeneration. The ABA treatment solution contained 1 mg/L ABA, 10 g/L sucrose, and MS solution.
The tubes were stored in partially closed zip bags with 25 tubes per unit. After storage the seeds were planted. No irrigation was used during the time the plantlets were growing in the field. The survival rates of the plantlets were measured after 5 weeks of growth.

In a further data set the test system is sugarcane. Briefly: Plantlet formation with Na silicate added to MS media; field test. It is filed as in vivo. To be noted: 5 mM added to MS media in weeks 3 and 4; observational evidence. Here is the method:
Plantlet formation (production of plants with shoots and roots), also called regeneration, was initiated by transferring the RPT to media without hormones. RPT fragments were made using scalpels, chopping tools, or by large scale dicing of material by mechanical means. Fragment size was determined by end usage: RPT fragments for growth in arrays were approximately 1-10 mm cubes, for growth in temporary immersion chambers somewhat larger fragments 5-20 mm were used, or the RPT was left unfragmented. The media used was MS+3% sucrose. Plantlet formation occurred at 26° C. in 60 uE/m2/sec of PAR light (16 hours on and 8 hours off), and if temporary immersion was used media was cycled over the fragments for 1 minute every 2 hours. Media was replaced weekly and was supplemented with 100 ppm carbenicillin, 0.2% PPM (Plant Preservative Mixture™, Plant Cell Technology Inc. Washington, D.C.), and/or 100 ppm cefotaxime as needed. Supplemental carbon dioxide (1500 ppm) was used in some growth cycles, but is not essential. After 3-4 weeks the MS concentration was decreased to ½ strength to encourage rooting, although not required.
The addition of 5 mM Na silicate to the MS media was made in weeks 3 and 4. […] Silicates accumulated in sugarcane tissues conferring anti-predatory, anti-fungal properties. […]

Data set [1] relates to regenerable plant tissue (RPT). Briefly: Culturing of regenerable plant tissue in media with BAP. It is filed as cell-based, sugarcane. To be noted: BAP present in the culture. From the text:
General procedures have been previously outlined (International Publication No. WO 2013/096531, incorporated by reference herein). In summary, half-explants were trimmed of excess stalk tissue, leaving behind the proliferating buds areas. Trimmed tissue was placed into a temporary immersion chamber for liquid culture, or back onto solid media. In the case of temporary immersion, the chamber was placed in a growth chamber, or room, with 30 uE/m2/sec of PAR light, and was hooked to tubing connected to pumps to allow standard immersion cycling. Media (MS+3% sucrose+[…]+3 mg/L paclobutrazol) was changed weekly. Harvest occurred 2-20 weeks after initiation, depending on whether the tissue is grown on solid or liquid media, and the overall mass of the regenerable plant tissue (RPT).
The RPT was subdivided into additional growth chambers or plates as needed. Multiple rounds of growth cycles were possible.

Data set [2] can be described thus: Accelerated degradation of cellulosic composites buried in soil. To be noted: buried in soil 1 month, 30° C., approximately 50% humidity; confidence interval 95%. It is filed as physicochemical. How it is done:
Cellulosic pulp was mixed with various materials to study the influence of the materials in the degradation of them in soil. To evaluate the different materials developed with cellulose, an accelerated degradation protocol was developed wherein samples with different compositions were buried in a recipient containing soil, and kept for 1 month in an incubator at 30° C. and approximately 50% humidity, representing field conditions. The cellulose content was measured using thermogravimetric analyses before and after the test to evaluate degradation, indicating cellulose degradation in field.
Different materials were tested, including a residue from the pulp and paper industry containing cellulosic fibers of long and short nature; inorganic fillers, mainly TiO2 and pigments. The final structure contained more than 90% of this cellulose mixture. To this mixture was added polyvinyl alcohol, up to 5% in weight, ionomer of ethylene acid copolymer, up to 5% in weight, used in the packaging industry, cationic starch, up to 5% in weight, more likely 1% to accelerate degradation, while promoting the adherence of the adjacent fibers of cellulose, urea to accelerate the degradation and nutrition of plants up to 10% in weight, more likely 5%, and AKD (alkyl ketene dimer) in a starch solution to serve as moisture barrier by changing the hydrophobicity of cellulose, more likely between 1-10 ppm.

Setting [3] is: Conditions N, O: 0 weeks, not stored.

`CC1=CC(=O)CC(C)(C)[C@@]1(O)/C=C/C(C)=C\C(=O)O` [ABA, abscisic acid]: the Survival was 0% in the data set on sugarcane plantlet (Condition C: storage 8 weeks, temperature 10, light 5); 0% in the data set with sugarcane plantlet (Condition D: storage 8 weeks, temperature 30, light 0); 0% in the data set on sugarcane plantlet (Condition G: storage 4 weeks, temperature 10, light 0); 50% in the data set on sugarcane plantlet (Condition H: storage 4 weeks, temperature 30, light 200); 0% in the data set with sugarcane plantlet (Condition L: storage 2 weeks, temperature 10, light 5); 0% in the data set with sugarcane plantlet (Condition M: storage 2 weeks, temperature 30, light 0). For the same compound, the Survival in the data set on sugarcane plantlet (setting [3]) stood at 12%.

Regarding Na silicate, the “Growth rate and root production in a field test” value in the data set with sugarcane was “improves growth rate and root production”.

As for `c1ccc(CNc2ncnc3nc[nH]c23)cc1` [BAP, 6-Benzylaminopurine], the Root formation result in data set [1] is “No root formation is detected”.

`NC(N)=O` [urea]: the “Influence on the degradation of cellulosic compounds” value in data set [2] was “high influence”.

In the case of `CC(C)(C)[C@@H](O)[C@@H](Cc1ccc(Cl)cc1)n1cncn1` (racemic) [Paclo, paclobutrazol], the Survival is 0% in the data set on sugarcane plantlet (Condition A: storage 8 weeks, temperature 10, light 0); 88% in the data set with sugarcane plantlet (Condition B: storage 8 weeks, temperature 30, light 200); 0% with sugarcane plantlet (Condition E: storage 4 weeks, temperature 10, light 5); 0% in the data set on sugarcane plantlet (Condition F: storage 4 weeks, temperature 30, light 0); 0% with sugarcane plantlet (Condition J: storage 2 weeks, temperature 10, light 0); 64% with sugarcane plantlet (Condition K: storage 2 weeks, temperature 30, light 200). For the same compound, the Survival in the data set with sugarcane plantlet (setting [3]) is 16%. For the same compound, the “Survival rate compared between treatments” value in the data set on sugarcane plantlet (storage experiment of Table 3 overall) is reported as “higher survival rate than the ABA treatment”.

For the origin of these results see patent publication US20170042104A1, “SUGARCANE PROCESS” (E I DU PONT DE NEMOURS AND COMPANY, priority 2014, published 2017).
